Measured values: US7780978B2, “Oral pharmaceutical compositions and methods of using the same” (Childrens Hospital Los Angeles, priority 2003, dated 2010)

Legend:
[1] = Steady state plasma and tissue levels of 4-HPR in mice fed or gavaged LXS compositions vs capsule contents (HPLC); type: in vivo; conditions: mice, 120, 250 and 560 mg/kg/day
Experimental: FIG. 1. Comparison of 4-HPR in LXS matrix vs Capsule Formulation at 120 mg/kg/day. Cohorts of five mice were feed with 120 mg/kg/day of 4-HPR formulated in various LXS compositions, or 4-HPR expressed from capsules, mixed with mouse chow or Slim-Fast®, divided BID, ×4.5 days. Animals were sacrificed 3 hrs after the last dose and 4-HPR levels in plasma and tissues were assayed by HPLC. […] PLASMA: G1 vs capsule, P=0.006; LYM-X 5.59 vs capsule, P=0.06; LIVER: G1 vs capsule, P=0.013; LYM-X 5.59 vs capsule, P=0.045; LUNGS: G1 vs capsule, P=0.028; G2 vs capsule, P=0.05; KIDNEY: G1 vs capsule, P=0.007; LYM-X 5.59 vs capsule, P=0.06; BRAIN: G1 vs capsule, P=0.01; LYM-X 5.58 vs capsule, P=0.02. Statistical analysis by Student's t-test. Columns, in each set of columns, in sequence from left to right, represent LYM-X 5.57, LYM-X 5.58, LYM-X 5.60, LYM-X 5.59, Capsule Lot #R-6124, LYM-X 5.60 G1 (SLIMFAST™), and LYM-X 5.60 G2 (DI Water).
FIG. 2. Comparison of 4-HPR in LXS™ matrix vs Capsule Formulation at 250 mg/kg/day. […]
To test this hypothesis, we had various LXS™ compositions of 4-HPR prepared that varied in the LPC:MG:FA ratios of the LXS™ matrix. We then feed mice with equal doses of 4-HPR in the LXS™ compositions, or expressed as a slurry from the current oral 4-HPR capsules. […]

[2] = cited from earlier work

dose dependence of 4-HPR plasma and tissue levels [1]: dose-dependent
SMILES: CC1=C(/C=C/C(C)=C/C=C/C(C)=C/C(=O)Nc2ccc(O)cc2)C(C)(C)CCC1 [Fenretinide, all-trans-N-(4-hydroxyphenyl)retinamide]
solubility in aqueous solution [2]: minimally soluble
